Measured values taken from patent US20240376097A1, “BCL-2 Inhibitor” (BeiGene Ltd., priority 2020, published 2024).
Read-outs that look alike come from different tables or passages of the source.

Key:
[1] = biological target: Recombinant human Bcl-2 protein (Homo sapiens (Human), UniProt P10415); experiment: Bcl-2 TR-FRET Assay; assay type: binding
Procedure, shortened: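 TR-FRET read (337 nm excitation, 520/490 nm emission) after 1 h with 0.5 nM FITC-labeled Bak peptide and Tb-cryptate anti-6His antibody. Bcl-2 at 0.05 nM had been pre-incubated 0.5 h with compound. IC50 fitted by four-parameter logistic equation.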

[2] = test system: RS4;11 (BCL-2 dependent acute lymphoblastic leukemia cell line); experiment: RS4;11 Cell Proliferation Assay; assay type: cell-based; conditions: Homo sapiens, RS4;11 cells, read-out: Cellular proliferation assay (IC50, nM) RS4
Procedure, shortened: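 Viability measured via CellTiter-Glo luminescence after a 48 h, 37 °C exposure to compounds (10 points, highest 1 μM). Seeding was 50,000 RS4;11 cells per well in 10% FBS RPMI-1640; IC50 given as mean.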

[3] = biological target: recombinant human Bcl-2 D103Y protein (Homo sapiens (Human), UniProt P10415, D103Y); experiment: Bcl-2-D103Y Biochemical Assay (TR-FRET); assay type: binding; conditions: for IC50: TR-FRET, FITC labeled Bak peptide; for Ratio of Bcl-2 D103Y/Bcl-2 WT: ratio of IC50
recombinant human Bcl-2 D103Y protein, sequence (P10415 whole entry D103Y): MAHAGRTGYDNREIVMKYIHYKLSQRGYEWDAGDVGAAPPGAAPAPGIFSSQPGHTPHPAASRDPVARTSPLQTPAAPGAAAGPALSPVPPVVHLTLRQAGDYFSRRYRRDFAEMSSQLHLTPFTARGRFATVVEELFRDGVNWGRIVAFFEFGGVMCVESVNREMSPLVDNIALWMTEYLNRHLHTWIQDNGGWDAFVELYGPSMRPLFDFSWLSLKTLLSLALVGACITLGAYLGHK
Procedure, shortened: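 Compounds titrated against the Bcl-2 D103Y–ligand interaction; inhibition derived from the TR-FRET emission ratio 490 nm/520 nm after 337 nm excitation. Four-parameter logistic fitting gave IC50.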

[4] = Bcl-2 wild type, TR-FRET, read-out: Biochemical assay (IC50, nM) Bcl-2 WT
[5] = wild type Bcl-2, unit inferred, read-out: Bcl-2 WT

Recombinant human Bcl-2 protein, sequence (P10415 whole entry): as the sequence (P10415 whole entry D103Y) above, with Y103D counted along it

Compound	IC50 [1, 4]	IC50 [1, 5]	IC50 [2]	IC50 [3]	Ratio of Bcl-2 D103Y/Bcl-2 WT [3]
COc1cc(CN2CCN(C3CC4(C3)CN(c3ccc(C(=O)NS(=O)(=O)c5ccc(NC[C@H]6CC[C@](C)(O)CC6)c([N+](=O)[O-])c5)c(Oc5cnc6[nH]cc(F)c6c5)c3)C4)[C@H](c3ccccc3C(C)C)C2)ccc1C [Example 274, 2-((3-fluoro-1H-pyrrolo[2,3-b]pyridin-5-yl)oxy)-N-((4-((((1r,4r)-4-hydroxy-4-methylcyclohexyl)methyl)amino)-3-nitrophenyl)sulfonyl)-4-(6-((R)-2-(2-isopropylphenyl)-4-(3-methoxy-4-methylbenzyl)piperazin-1-yl)-2-azaspiro[3.3]heptan-2-yl) benzamide]	0.55 nM	0.55 nM	0.15 nM	0.31 nM	0.57
COc1cc(CN2CCN(C3CC4(CCN(c5ccc(C(=O)NS(=O)(=O)c6ccc(NC[C@H]7CC[C@](C)(O)CC7)c([N+](=O)[O-])c6)c(Oc6cnc7[nH]cc(F)c7c6)c5)CC4)C3)[C@H](c3ccccc3C(C)C)C2)cc2ccoc12 [Example 281, 2-((3-fluoro-1H-pyrrolo[2,3-b]pyridin-5-yl)oxy)-N-((4-((((1r,4r)-4-hydroxy-4-methylcyclohexyl)methyl)amino)-3-nitrophenyl)sulfonyl)-4-(2-((R)-2-(2-isopropylphenyl)-4-((7-methoxybenzofuran-5-yl)methyl)piperazin-1-yl)-7-azaspiro[3.5]nonan-7-yl)benzamide]	0.43 nM	0.43 nM	0.13 nM	0.51 nM	1.2
COc1cc(CN2CCN(C3CC4(CCN(c5ccc(C(=O)NS(=O)(=O)c6ccc(NC[C@H]7CC[C@](C)(O)CC7)c([N+](=O)[O-])c6)c(Oc6cnc7[nH]cc(F)c7c6)c5)CC4)C3)[C@H](c3ccccc3C(C)C)C2)cc2c1OCC2(C)C [Example 285, 2-((3-fluoro-1H-pyrrolo[2,3-b]pyridin-5-yl)oxy)-N-((4-((((1r,4r)-4-hydroxy-4-methylcyclohexyl)methyl)amino)-3-nitrophenyl)sulfonyl)-4-(2-((R)-2-(2-isopropylphenyl)-4-((7-methoxy-3,3-dimethyl-2,3-dihydrobenzofuran-5-yl)methyl)piperazin-1-yl)-7-azaspiro [3.5]nonan-7-yl)benzamide]	0.26 nM	0.26 nM	0.18 nM	0.49 nM	1.9
COc1cc(CN2CCN(C3CC4(C3)CN(c3ccc(C(=O)NS(=O)(=O)c5ccc(NC[C@H]6CC[C@](C)(O)CC6)c([N+](=O)[O-])c5)c(Oc5cnc6[nH]cc(F)c6c5)c3)C4)[C@H](c3ccccc3C(C)C)C2)cc2c1OCCC2 [Example 312, 2-((3-fluoro-1H-pyrrolo[2,3-b]pyridin-5-yl)oxy)-N-((4-((((1r,4r)-4-hydroxy-4-methylcyclohexyl)methyl)amino)-3-nitrophenyl)sulfonyl)-4-(6-((R)-2-(2-isopropylphenyl)-4-((8-methoxychroman-6-yl)methyl)piperazin-1-yl)-2-azaspiro[3.3]heptan-2-yl)benzamide]	0.094 nM	0.08 nM	0.27 nM	0.081 nM	1.0
COc1cc(CN2CCN(C3CC4(C3)CN(c3ccc(C(=O)NS(=O)(=O)c5ccc(NC[C@H]6CC[C@](C)(O)CC6)c([N+](=O)[O-])c5)c(Oc5cnc6[nH]cc(F)c6c5)c3)C4)[C@H](c3ccccc3C(C)C)C2)ccc1OC1CC1 [Example 321, 4-(6-((R)-4-(4-cyclopropoxy-3-methoxybenzyl)-2-(2-isopropylphenyl)piperazin-1-yl)-2-azaspiro[3.3]heptan-2-yl)-2-((3-fluoro-1H-pyrolo[2,3-b]pyridin-5-yl)oxy)-N-((4-((((1r,4r)-4-hydroxy-4-methylcyclohexy)methyl)amino)-3-nitrophenyl)sulfonyl)benzamide]	0.17 nM	0.17 nM	0.22 nM	0.14 nM	0.79
